Laboratory results: ChEMBL document CHEMBL1150181, “Chemistry of Sponges, VIII. Anomoian A, a Bromotyrosine Derivative from Anomoiantbella popeae” (J Nat Prod, 1990)
Activity calls are given as the source filed them.

Legend:
Format in all cases: functional, organism-based
Staphylococcus aureus = experiment: Antimicrobial activity against Staphylococcus aureus at 10 ug/disk
Bacillus subtilis = experiment: Antimicrobial activity against Bacillus subtilis at 5 ug/disk
Candida albicans = experiment: Antimicrobial activity against Candida albicans at 25 ug/disk

Measured: Activity

CNC(Cc1cc(Br)c(OC)c(Br)c1)C(=O)NCCCOc1c(Br)cc(CCN(C)C)cc1Br (stereo not drawn)
active: all assays above
